Earlier results, collected in patent US8614057B2, “Methods for collecting and detecting oligonucleotides” (The Invention Science Fund I, LLC, priority 2008, dated 2013).
Where two headings read alike, the source gives them in different places.

What was measured:
[1] = subcutaneous; 40, 8, and 1.6 μg injections once daily over 35 days
RNAse A [2] = biological target: T1, RNAse A (Bos taurus, UniProt P61823)
T1 sequence (P61823 27-150): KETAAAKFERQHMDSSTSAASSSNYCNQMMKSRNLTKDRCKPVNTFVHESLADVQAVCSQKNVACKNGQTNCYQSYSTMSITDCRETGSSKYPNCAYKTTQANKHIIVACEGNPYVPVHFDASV

[3] = biological target: RNase-2 (eosinophil derived neurotoxin) (Homo sapiens, UniProt P10153)
Chain of RNase-2 (eosinophil derived neurotoxin) (P10153 28-161): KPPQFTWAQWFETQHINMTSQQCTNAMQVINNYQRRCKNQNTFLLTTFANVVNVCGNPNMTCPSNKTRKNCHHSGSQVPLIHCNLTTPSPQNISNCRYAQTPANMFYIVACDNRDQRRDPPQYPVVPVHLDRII

RNase-4 = biological target: T2, RNase-4 (Homo sapiens, UniProt P34096)
T2 sequence (P34096 29-147): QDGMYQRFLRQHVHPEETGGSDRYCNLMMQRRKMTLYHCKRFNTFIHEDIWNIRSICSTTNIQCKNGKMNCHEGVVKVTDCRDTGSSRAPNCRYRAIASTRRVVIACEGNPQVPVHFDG

[4] = in humans
RNAse A [5] = biological target: T1, RNAse A; settings: RNAse A catalysis

Nc1ccc(N=Nc2ccc(-c3ccc(O)cc3)cc2)c2ccc(S(=O)(=O)O)cc12 [8-amino-5-(4′-hydroxylbiphenyl-4-ylazo)naphthalene-2-sulfonate]
toxicity to the animals [1]: without overt toxicity

Nc1ncnc2c1ncn2C1OC(COP(=O)(O)OP(=O)(O)OC2CC(n3ccc(=O)[nH]c3=O)OC2COP(=O)(O)O)C(OP(=O)(O)O)C1O (centres unmarked) [pdUppAp, 5′-phosphor-2′-deoxyuridine 3′-pyrophosphate, P′-P5-ester with adenosine 3′-phosphate]
Ki (RNAse A [2]; pH 5.9): 27 nM | Ki (RNAse A [2]; pH 7.0): 240 nM | inhibition of RNase-2 activity [3]: inhibits the activity | inhibition of RNase-4 activity (RNase-4): inhibits the activity

Etanercept
half-life [4]: 70 h

oligo(vinylsulfonic acid)
Ki (RNAse A [5]; 0 mM sodium chloride end of the range 0 to 100 mM, read-out: inhibition constant (Ki), lower end of reported range): ~0.01 nM | Ki (RNAse A [5]; 100 mM sodium chloride end of the range 0 to 100 mM, read-out: inhibition constant (Ki), upper end of reported range): ~120 nM
